Experimental data reported in paper PMC4580985, “Calcium ions open a selectivity filter gate during activation of the MthK potassium channel” (Nature Communications, 2015).

Molecular target: T1, MthK (Methanothermobacter thermautotrophicus, UniProt O27564)
T1 construct: MthK channel with pore and cytosolic gating ring (RCK), purified in decyl maltoside, Superdex 200, reconstituted in DOPC:POPG 3:1 liposomes
Experiment: stopped-flow Tl+ flux (ANTS quench) in MthK liposomes, blocker equilibration time course
Type: biochemical
Details: read-out: KD^ap
From the text: stopped-flow Tl+ flux (ANTS quench) in MthK liposomes, blocker equilibration time course on MthK

Kd	Structure (SMILES)
2100 ± 200 nM	CCCCC[N+](CCCCC)(CCCCC)CCCCC [TPeA]
2600 ± 400 nM	CCCC[N+](CCCC)(CCCC)Cc1ccc(Br)cc1 [Br-bTBA, 4-bromobenzyltributylammonium bromide]
700 ± 200 nM	CCCC[N+](CCCC)(CCCC)Cc1ccc(C(=O)c2ccccc2)cc1 [bbTBA, N-(4-[benzoyl]benzyl)-N,N,N-tributylammonium]
